Values quoted from earlier work as cited in patent publication US20250099408A1, “IMPROVED SURAMIN METHODS AND COMPOSITIONS” (priority 2022, published 2025).

System: HIV
Conditions: suramin 1 g IV

## Cc1ccc(C(=O)Nc2ccc(S(=O)(=O)O)c3cc(S(=O)(=O)O)cc(S(=O)(=O)O)c23)cc1NC(=O)c1cccc(NC(=O)Nc2cccc(C(=O)Nc3cc(C(=O)Nc4ccc(S(=O)(=O)O)c5cc(S(=O)(=O)O)cc(S(=O)(=O)O)c45)ccc3C)c2)c1 [suramin]
HIV patients
  virus in the blood circulation: almost clearing the virus from the blood circulation
  clinical improvement of the patients: did not give clinical improvements
